pIC50: −log10 of the molar value.
How the values were obtained:
[1] = tested on: CRF-dependent cAMP production in AtT-20 cells; test: cAMP production inhibition experiment using AtT-20 cells; assay type: cell-based; details: Mus musculus, AtT20, 30 nM CRF, intracellular cAMP by HTRF, read-out: Adenylate cyclase activity IC50
Source text: <cAMP Production Inhibition Experiment Using AtT-20 Cells>
The AtT-20 cells were of a mouse pituitary gland tumor-derived cell line which is known to respond to Corticotropin-Releasing Factor (CRF), leading to activation of the intracellular adenylate cyclase system, production of cyclic AMP (cAMP), and release of adenocorticotropic hormone (ACTH) (Biochem. Biophys. Res. Com. 106, 1364-1371, 1982). For the experiment, the cells (1×10^5) were suspended in D-MEM medium (0.1% FBS) and seeded in a 96-well plate, phosphodiesterase inhibitor (IBMX, Calbiochem) was added to a final concentration of 1 mM, and were cultured at 37° C. for 30 minutes. A dilution of the test compound was added, culturing was continued for 30 minutes at 37° C., and CRF (30 nM) was added and culturing was continued for 30 minutes at 37° C. The cells were collected by centrifugation (500×g, 5 minutes) and lysed with lysis buffer (0.2% dodecyltrimethylammonium bromide), and the intracellular cAMP production was quantified by the HTRF method. A cAMP kit HTRF (CIS Diagnostics Co., Ltd.) was used for the cAMP quantification.
(2) Calculation of cAMP Production Inhibition
The cAMP production of cells to which 30 nM CRF had been added was defined as 100% (control), and the value for each specimen was represented as a percentage (% of control).

human CRFR1 = biological target: T1, human CRFR1 (Homo sapiens, UniProt P34998); test: CRFR binding experiment (125I-sauvagine SPA, membrane fraction of CRFR1-expressing HEK293 cells); details: 125I-sauvagine displacement, read-out: CRF1 receptor binding affinity IC50
T1 construct: The full-length CRFR1 gene was obtained from a human brain cDNA library (QuickClone™, Clontech) by PCR; expressed in transfected cells
T1 sequence (P34998 24-415): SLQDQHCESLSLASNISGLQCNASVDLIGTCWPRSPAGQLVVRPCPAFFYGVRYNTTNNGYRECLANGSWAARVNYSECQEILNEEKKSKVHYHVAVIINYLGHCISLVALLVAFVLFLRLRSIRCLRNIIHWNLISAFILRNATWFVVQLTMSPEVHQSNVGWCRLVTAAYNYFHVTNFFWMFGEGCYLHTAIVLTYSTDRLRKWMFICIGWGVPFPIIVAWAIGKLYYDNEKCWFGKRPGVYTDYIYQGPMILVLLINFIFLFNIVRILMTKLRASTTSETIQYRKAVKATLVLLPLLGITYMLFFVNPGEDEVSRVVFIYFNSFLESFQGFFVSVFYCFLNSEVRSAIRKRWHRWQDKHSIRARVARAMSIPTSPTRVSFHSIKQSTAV
Method: <CRFR Binding Experiment>
(1) Preparation of CRFR-Expressing Cells
Membrane fraction of the cell highly expressing human CRFR1 was used as the experimental material for a CRFR binding experiment. The CRFR expressing cells were prepared in the following manner. The full-length CRFR1 gene was obtained from a human brain cDNA library (QuickClone™, Clontech) by PCR. The obtained DNA fragments were inserted into cloning vectors and the base sequences were determined. cDNA having the correct base sequence was then relinked to an expression vector (pcDNA3.1™, Invitrogen). The CRFR1 expression vector was introduced into HEK293 cells, and the resistant cells which grew in cell medium containing G418 (1 mg/ml) were cloned by limiting dilution. From these cloned cells, the clones with high binding affinity between the membrane fraction and sauvagine per unit of protein in the binding experiment described below were selected out and used for the final experiment.
(2) Preparation of Membrane Fraction
The cloned cells obtained in (1) were collected and disrupted with an ultrasonic generator in sonicate buffer (D-PBS(−) 10 mM MgCl2, 2 mM EGTA). The suspension obtained from ultrasonic disruption was centrifuged (46,000×g, 10 minutes), and the precipitate was resuspended in sonicate buffer and the same procedure was repeated. The final precipitate was then suspended in binding buffer (D-PBS(−) 10 mM MgCl2, 2 mM EGTA, 1.5% BSA, 0.15 mM bacitracin, 1× protease inhibitor cocktail (COMPLETE™, Boehringer)), and used as the membrane fraction after adjusting the protein concentration to 1.6 mg/ml.
The sauvagine binding experiment was conducted following the protocol of SPA™ (Amersham Pharmacia), using a 96-well plate. The experiment was conducted according to the SPA beads instruction manual. After allowing […] of the membrane fraction protein, 0.5 mg of SPA beads and […] of ^125I-sauvagine (Amersham Pharmacia) to stand at room temperature for 2 hours in the presence of the test compound, the mixture was centrifuged (1000×g, 5 minutes) and the radioactivity of each well was measured with a TopCount™ (Packard).
(4) Calculation of Binding Affinity
The radioactivity for non-radioactive sauvagine added in a 1000-fold excess was subtracted from each value as the non-specific binding, and the radioactivity of a sample without addition of the test substance (control) was defined as 100%, with each value represented as a percentage (% of control).

Row | pIC50 [1] | pIC50 (human CRFR1) | SMILES
1 | 6.89 | – | CCCN(CCC)c1c(CC)nn2c(-c3ccc(OC)cc3Cl)cccc12 [Example 3, N-[7-(2-Chloro-4-methoxyphenyl)-2-ethylpyrazolo[1,5-a]pyridin-3-yl]-N,N-dipropylamine]
2 | 6.70 | 6.80 | CCCN(CCC)c1c(CC)nn2c(-c3ccc(OC)cc3OC)cccc12 [Example 6, N-[7-(2,4-Dimethoxyphenyl)-2-ethylpyrazolo[1,5-a]pyridin-3-yl]-N,N-dipropylamine]
3 | 6.26 | 6.68 | CCCN(CCOC)c1c(CC)nn2c(-c3ccc(Cl)cc3Cl)cccc12 [Example 25, N-[7-(2,4-Dichlorophenyl)-2-ethylpyrazolo[1,5-a]pyridin-3-yl]-N-(2-methoxyethyl)-N-propylamine]
4 | 6.52 | 7.26 | CCc1nn2c(-c3ccc(Cl)cc3Cl)cccc2c1N(CCOC)CC(C)C [Example 27, N-[7-(2,4-Dichlorophenyl)-2-ethylpyrazolo[1,5-a]pyridin-3-yl]-N-isobutyl-N-(2-methoxyethyl)amine]
5 | 6.40 | 7.05 | CCCN(CCC)c1c(SC)nn2c(-c3ccc(Cl)cc3Cl)cccc12 [Example 103, N-[7-(2,4-Dichlorophenyl)-2-methylthiopyrazolo[1,5-a]pyridin-3-yl]-N,N-dipropylamine]
6 | 7.70 | 7.30 | COCCN(CC(C)C)c1c(SC)nn2c(-c3c(C)cc(C)cc3OC)cccc12 [Example 108, N-Isobutyl-N-[7-(2-methoxy-4,6-dimethylphenyl)-2-(methylsulfanyl)pyrazolo[1,5-a]pyridin-3-yl]-N-(2-methoxyethyl)amine]

Reference: US7285666B2, “Pyrazolo[1,5-a] pyridines and medicines containing the same” (Eisai R&D Management Co., Ltd., priority 2001, dated 2007)
